≈ marks a conversion by molar mass, not a printed value. Numbered stars: 1 amine (or outer) side, 2 acyl side, 3 side chain; on linkers, the order of the positions; unused ones are H or OH. Square brackets hold non-standard residues; d marks the D form. Peptide text beside a SMILES is read from it. * marks the point of attachment. ξ: configuration not given here. boroAla((+)-pinanediol) = C[C@H](N*)B1O[C@@H]2C[C@@H]3C[C@@H](C3(C)C)[C@]2(C)O1; Biphenylcarbonyl(4'-Bu) = CCCCc1ccc(-c2ccc(C(=O)*)cc2)cc1; X1 = C[C@H](N*)B1OC2C[C@@H]3C[C@@H](C3(C)C)[C@]2(C)O1; NMeThr(3ξ) = CN[C@H](C(=O)O)C(C)O; X10 = CCCCc1ccc(-c2ccc(N*)cc2)cc1; Myristoyl = CCCCCCCCCCCCCC(=O)*; Thr(3ξ) = CC(O)[C@H](N)C(=O)O; X3 = CCCCCCCCCCCCS(=O)(=O)*; boroAla = C[C@H](N*)B(O)O; Dab = NCC[C@H](N)C(=O)O; Dap = NC[C@H](N)C(=O)O; CO = O=C([*:1])[*:2]
Experiments:
S. aureus SPase = S. aureus SPase (Staphylococcus aureus, UniProt P0A070); assay: biochemical
Method: Full length His-tagged S. aureus SPase protein was expressed similarly from E. coli BL21(DE3) containing the plasmid pCDF1-SaSpsB and purified similarly to the E. coli protein with the following exceptions. […] Protein purity was judged to exceed 95% by visual inspection of SDS-PAGE followed by Comassie staining. All protein concentrations were determined by BCA assay.
(§1) Reactions were initiated by the addition of substrate to a final concentration of 20 μM. Reaction progress was monitored by measuring the increase in fluorescence signal (excitation at 314 nm, emission at 416 nm) using a SpectraMax M2 fluorescence microplate reader. […] Three-folder serial dilutions of test compounds, starting at 10 μM, were prepared in enzyme mix solution and incubated at room temperature for 10 minutes. Following this incubation, fluorogenic substrate was added to a final concentration of 20 μM and the increase in fluorescence, corresponding to substrate cleavage, was monitored continuously at room temperature for 1 hour. Initial reaction rates were calculated based on the rate of increase in fluorescence during the reaction. Reaction rates were plotted as a function of compound concentration, and IC50 values are determined nonlinear regression analysis (SoftMaxPro 5.4, Molecular Devices™) of the sigmoidal dose-response curve.

[1] = test system: Methicillin Resistant Staphylococcus aureus strain USA 300 (NRS384); details: Method A; MRSA USA 300 (NRS384); 35° C., 22 hours
Method: (§2) In vitro antimicrobial activity of each compound was determined by measuring minimal inhibitor concentrations (MICs) using the broth micro-dilution technique as approved by the Clinical and Laboratory Standards Institute (CLSI). […] Cells were inoculated onto Trypyticase Soy Agar or Luria Agar containing 16 ng/ml of anhydrotetracycline respectively and grown at 35° C. for 20 hours. Inocula suspensions were made by scraping cells into 1 mL of testing media (cation adjusted Mueller Hinton Broth supplemented with 0.002% v/v Tween-80) and diluting to a final OD600 nm of 0.01.
(§3) Test compounds were prepared in DMSO at a concentration of 10 mg/ml. […] Inocula suspensions were added to the two fold serial dilutions of test compounds to a final density of OD OD600 nm of 0.0005 and incubated stationary at 35° C. for 22 hours, after which the plates were examined visually.

E. coli SPase = E. coli SPase (Escherichia coli, UniProt P00803); assay: Biochemical SPase activity assay (fluorogenic peptide substrate), E. coli enzyme
Method: as §1

[2] = test system: Escherichia coli MC4100 IMP-4213 in which transcription of the SPase encoding gene is under control of a tetracycline inducible promoter; details: Method A; E. coli MC4100 IMP-4213 with decreased SPase expression; 35° C., 22 hours
Method: as §2, §3

[3] = test system: Escherichia coli strain MC4100 IMP-4213, which harbors an LptD mutation; details: Method B; E. coli MC4100 IMP-4213 (LptD mutation); 35° C., 22 hours
Procedure, shortened: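 Two-fold serial dilutions of compound inoculated at final OD600 0.0005, incubated static at 35 °C for 22 h, and growth read visually.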

[4] = test system: methicillin resistant Staphylococcus aureus (MRSA) strain USA300 (NRS384); details: Method B, 35° C., 22 hours
Method: In vitro antimicrobial activity of each compound was determined by measuring minimal inhibitor concentrations (MICs) using the broth micro-dilution technique as approved by the Clinical and Laboratory Standards Institute (CLSI). […] Bacterial inocula were prepared by scraping cells into 1 mL of testing media (cation adjusted Mueller Hinton Broth supplemented with 0.002% v/v Tween-80) and diluting to a final OD600 nm of 0.01.
Test compounds were prepared in DMSO at a concentration of 10 mg/ml. […] Bacterial inocula were added to the two fold serial dilutions of test compounds to a final density of OD OD600 nm of 0.0005 and incubated stationarily at 35° C. for 22 hours, after which the plates were examined visually.

Sequence of S. aureus SPase (P0A070 whole entry): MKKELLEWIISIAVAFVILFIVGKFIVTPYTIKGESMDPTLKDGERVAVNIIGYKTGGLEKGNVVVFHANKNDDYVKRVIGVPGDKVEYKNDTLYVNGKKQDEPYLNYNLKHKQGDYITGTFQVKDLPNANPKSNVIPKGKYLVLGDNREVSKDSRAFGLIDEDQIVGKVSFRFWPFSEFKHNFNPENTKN
Sequence of E. coli SPase (P00803 whole entry): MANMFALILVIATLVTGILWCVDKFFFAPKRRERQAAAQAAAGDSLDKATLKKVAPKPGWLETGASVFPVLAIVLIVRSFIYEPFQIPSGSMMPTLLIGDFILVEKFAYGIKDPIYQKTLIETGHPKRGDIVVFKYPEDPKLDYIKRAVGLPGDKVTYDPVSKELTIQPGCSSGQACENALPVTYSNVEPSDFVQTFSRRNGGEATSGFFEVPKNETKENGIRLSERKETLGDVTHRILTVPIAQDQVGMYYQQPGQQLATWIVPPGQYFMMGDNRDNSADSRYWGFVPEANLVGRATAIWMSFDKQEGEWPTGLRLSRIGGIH

| SMILES | IC50 (S. aureus SPase) [nM] | MIC (μg/mL) S. aureus [1] [µg/mL] | IC50 (E. coli SPase) [nM] | MIC (μg/mL) E. coli [2] [µg/mL] | MIC (μg/mL) E. coli [3] [µg/mL] | MIC (μg/mL) S. aureus [4] [µg/mL] |
| --- | --- | --- | --- | --- | --- | --- |
| CCCCCCCCCCCCCC(=O)N[C@@H](CC(C)C)C(=O)N[C@H](C(=O)N1CCC[C@@H]1C(=O)N[C@H](C(=O)N[C@@H](C)C(=O)N[C@@H](CC(N)=O)C(=O)NCC=O)C(C)O)C(C)O (some centres unmarked) [Compound 103] (Myristoyl-L[Thr(3ξ)][dP][Thr(3ξ)]ANG-aldehyde) | 110 | >64 | 11000 | – | – | – |
| CCCCCCCCCCCCCC(=O)N[C@H](CO)C(=O)N[C@H](C)C(=O)NCC(=O)N(C)[C@H](C(=O)N[C@@H](C)C(=O)N[C@@H](CC(C)C)C(=O)NCC=O)C(C)O (some centres unmarked) [Compound 104] (Myristoyl-[dS][dA]G[NMeThr(3ξ)]ALG-aldehyde) | 18 | 8 (≈ 10.2 µM) | 8900 | – | – | – |
| CCCCCCCCCCCCCC(=O)N[C@@H](CC(C)C)C(=O)N[C@H](C(=O)N1CCC[C@@H]1C(=O)N[C@H](C(=O)N[C@@H](C)C(=O)N[C@@H](Cc1ccc(O)cc1)C(=O)NCC=O)C(C)O)C(C)O (some centres unmarked) [Compound 105] (Myristoyl-L[Thr(3ξ)][dP][Thr(3ξ)]AYG-aldehyde) | – | >64 | – | >64 | – | – |
| CCCCc1ccc(-c2ccc(C(=O)N[C@@H](CN)C(=O)N[C@@H](CCC(=O)N[C@H](C)C(=O)O)C(=O)N[C@@H](C)C(=O)N[C@@H](CCCCN)C(=O)N[C@@H](C)B3O[C@@H]4C[C@@H]5C[C@@H](C5(C)C)[C@]4(C)O3)cc2)cc1 [Compound 260] ({Biphenylcarbonyl(4'-Bu)}-[Dap]E(dA)AK-{boroAla((+)-pinanediol)}) | 83 | – | 5.6 | – | 1 (≈ 1.06 µM) | 4 (≈ 4.23 µM) |
| CCCCc1ccc(-c2ccc(C(=O)N[C@@H](CCCCN)C(=O)N[C@@H](CCC(=O)OCC)C(=O)N[C@@H](C)C(=O)N[C@@H](CCCCN)C(=O)N[C@@H](C)B3O[C@@H]4C[C@@H]5C[C@@H](C5(C)C)[C@]4(C)O3)cc2)cc1 [Compound 261] ({Biphenylcarbonyl(4'-Bu)}-KE(OEt)AK-{boroAla((+)-pinanediol)}) | 280 | – | 41 | – | 0.79 (≈ 0.837 µM) | 0.71 (≈ 0.752 µM) |
| CCCCc1ccc(-c2ccc(OC(=O)N[C@@H](CCCCN)C(=O)N[C@H](C(=O)N[C@@H](C)C(=O)N[C@@H](CC(N)=O)C(=O)N[C@@H](C)B3OC4C[C@@H]5C[C@@H](C5(C)C)[C@]4(C)O3)[C@@H](C)O)cc2)cc1 (some centres unmarked) [Compound 262] | 15 | – | 37 | – | 8 (≈ 8.99 µM) | 2.8 (≈ 3.15 µM) |
| CCCCc1ccc(-c2ccc(NC(=O)N[C@@H](CCCCN)C(=O)N[C@H](C(=O)N[C@@H](C)C(=O)N[C@@H](CC(N)=O)C(=O)N[C@@H](C)B3OC4C[C@@H]5C[C@@H](C5(C)C)[C@]4(C)O3)[C@@H](C)O)cc2)cc1 (some centres unmarked) [Compound 263] ({X10-CO}-KTAN-X1) | 72 | – | 88 | – | 2 (≈ 2.25 µM) | 0.71 (≈ 0.799 µM) |
| CCCCCCCCCCCCS(=O)(=O)N[C@@H](CCCCN)C(=O)N[C@H](C(=O)N[C@@H](C)C(=O)N[C@@H](CCCCN)C(=O)N[C@@H](C)B(O)O)C(C)O (some centres unmarked) [Compound 265] (X3-K[Thr(3ξ)]AK-boroAla) | 17 | – | 120 | – | 4 (≈ 5.33 µM) | 0.13 (≈ 0.173 µM) |
| CCCCc1ccc(-c2ccc(CN[C@@H](CCN)C(=O)N[C@H](C(=O)N[C@@H](C)C(=O)N[C@@H](CCCCN)C(=O)N[C@@H](C)B3OC4C[C@@H]5C[C@@H](C5(C)C)[C@]4(C)O3)[C@@H](C)O)cc2)cc1 (some centres unmarked) [Compound 266] | 160 | – | 22 | – | 1 (≈ 1.18 µM) | 0.5 (≈ 0.591 µM) |
| CCCCc1ccc(-c2ccc(C(=O)N[C@@H]3CN[C@H](C(=O)N[C@H](C(=O)N[C@@H](C)C(=O)N[C@@H](CCCCN)C(=O)N[C@@H](C)B4OC5C[C@@H]6C[C@@H](C6(C)C)[C@]5(C)O4)[C@@H](C)O)C3)cc2)cc1 (some centres unmarked) [Compound 268] | 81 | – | 1600 | – | 16 (≈ 18.4 µM) | 1 (≈ 1.15 µM) |
| CCCCc1ccc(-c2ccc(C(=O)N[C@H]3CN[C@H](C(=O)N[C@H](C(=O)N[C@@H](C)C(=O)N[C@@H](CCCCN)C(=O)N[C@@H](C)B4OC5C[C@@H]6C[C@@H](C6(C)C)[C@]5(C)O4)[C@@H](C)O)C3)cc2)cc1 (some centres unmarked) [Compound 269] | 340 | – | 1800 | – | 8 (≈ 9.18 µM) | 0.5 (≈ 0.573 µM) |
| CCCCc1ccc(-c2ccc(CNCCC(=O)N[C@H](C(=O)N[C@@H](C)C(=O)N[C@@H](CCCCN)C(=O)N[C@@H](C)B3O[C@@H]4C[C@@H]5C[C@@H](C5(C)C)[C@]4(C)O3)[C@@H](C)O)cc2)cc1 [Compound 270] | 120 | – | 650 | – | 8 (≈ 9.79 µM) | 0.5 (≈ 0.612 µM) |
| CCCCc1ccc(-c2ccc(CNCCCC(=O)N[C@H](C(=O)N[C@@H](C)C(=O)N[C@@H](CCCCN)C(=O)N[C@@H](C)B3O[C@@H]4C[C@@H]5C[C@@H](C5(C)C)[C@]4(C)O3)[C@@H](C)O)cc2)cc1 [Compound 271] | 16 | – | 200 | – | 11 (≈ 13.2 µM) | 0.5 (≈ 0.602 µM) |
| CCCCc1ccc(-c2ccc(C(=O)N3CCC(C(=O)N[C@H](C(=O)N[C@@H](C)C(=O)N[C@@H](CCCCN)C(=O)N[C@@H](C)B4O[C@@H]5C[C@@H]6C[C@@H](C6(C)C)[C@]5(C)O4)[C@@H](C)O)CC3)cc2)cc1 [Compound 272] | 50 | – | 1300 | – | 32 (≈ 36.7 µM) | 0.71 (≈ 0.815 µM) |
| CCCCc1ccc(-c2ccc(CN3CCC(C(=O)N[C@H](C(=O)N[C@@H](C)C(=O)N[C@@H](CCCCN)C(=O)N[C@@H](C)B4OC5C[C@@H]6C[C@@H](C6(C)C)[C@]5(C)O4)[C@@H](C)O)CC3)cc2)cc1 (some centres unmarked) [Compound 273] | 9.8 | – | 470 | – | 8 (≈ 9.34 µM) | 0.088 (≈ 0.103 µM) |
| CCCCc1ccc(-c2ccc(CNCCC[C@H](N)C(=O)N[C@H](C(=O)N[C@@H](C)C(=O)N[C@@H](CCCCN)C(=O)N[C@@H](C)B3OC4C[C@@H]5C[C@@H](C5(C)C)[C@]4(C)O3)[C@@H](C)O)cc2)cc1 (some centres unmarked) [Compound 274] | 35 | – | 1700 | – | 16 (≈ 18.6 µM) | 0.13 (≈ 0.151 µM) |
| CCCCc1ccc(-c2ccc(CNCCC[C@H](NC(C)=O)C(=O)N[C@H](C(=O)N[C@@H](C)C(=O)N[C@@H](CCCCN)C(=O)N[C@@H](C)B3OC4C[C@@H]5C[C@@H](C5(C)C)[C@]4(C)O3)[C@@H](C)O)cc2)cc1 (some centres unmarked) [Compound 275] | 110 | – | 1500 | – | 32 (≈ 35.5 µM) | 1 (≈ 1.11 µM) |
| CCCCc1ccc(-c2ccc(CNCC[C@H](N)C(=O)N[C@H](C(=O)N[C@@H](C)C(=O)N[C@@H](CCCCN)C(=O)N[C@@H](C)B3OC4C[C@@H]5C[C@@H](C5(C)C)[C@]4(C)O3)[C@@H](C)O)cc2)cc1 (some centres unmarked) [Compound 276] | 110 | – | 2000 | – | 16 (≈ 18.9 µM) | 0.5 (≈ 0.591 µM) |
| CCCCc1ccc(-c2ccc(CNCC[C@H](NC(C)=O)C(=O)N[C@H](C(=O)N[C@@H](C)C(=O)N[C@@H](CCCCN)C(=O)N[C@@H](C)B3OC4C[C@@H]5C[C@@H](C5(C)C)[C@]4(C)O3)[C@@H](C)O)cc2)cc1 (some centres unmarked) [Compound 277] | 110 | – | 680 | – | 32 (≈ 36 µM) | 0.5 (≈ 0.563 µM) |
| CCCCc1ccc(-c2ccc(C(=O)NCCCC[C@H](NC(=O)[C@@H](N)CCN)C(=O)N[C@@H](C)C(=O)N[C@@H](CCCCN)C(=O)N[C@@H](C)B3OC4C[C@@H]5C[C@@H](C5(C)C)[C@]4(C)O3)cc2)cc1 (some centres unmarked) [Compound 278] (H-[Dab]K(Biphenylcarbonyl(4'-Bu))AK-X1) | 2300 | – | 800 | – | 16 (≈ 18 µM) | 4 (≈ 4.51 µM) |
| CCCCc1ccc(-c2ccc(C(=O)NCCCC[C@H](NC(=O)[C@H](CCN)NC(C)=O)C(=O)N[C@@H](C)C(=O)N[C@@H](CCCCN)C(=O)N[C@@H](C)B3OC4C[C@@H]5C[C@@H](C5(C)C)[C@]4(C)O3)cc2)cc1 (some centres unmarked) [Compound 279] (Ac-[Dab]K(Biphenylcarbonyl(4'-Bu))AK-X1) | 7400 | – | 530 | – | 8 (≈ 8.61 µM) | 11 (≈ 11.8 µM) |
